The source of these data is patent publication US20240109910A1, “HEXAHYDRO-5,8-EPOXYCYCLOHEPTA[c]PYRAZOLE DERIVATIVES USEFUL AS MODULATORS OF THE CB1 AND / OR CB2 RECEPTORS” (JANSSEN PHARMACEUTICA NV, priority 2019, published 2024).

Molecules are shown by their SMILES. Read-outs that look alike come from different tables or passages of the source.

In one test the target is hCB1 receptor (Homo sapiens, UniProt P21554). Briefly: Agonism of CB1 by detection of cAMP using HTRF. As to conditions: for Emax: normalized to DMSO and maximal activation (5 nM CP55940). Format: cell-based. How it is done: (§1) Method for Assaying Agonism of CB1 or CB2 by Detection of cAMP Using Homogeneous Time-Resolved Fluorescence (HTRF®)
Chain of hCB1 receptor (P21554 whole entry): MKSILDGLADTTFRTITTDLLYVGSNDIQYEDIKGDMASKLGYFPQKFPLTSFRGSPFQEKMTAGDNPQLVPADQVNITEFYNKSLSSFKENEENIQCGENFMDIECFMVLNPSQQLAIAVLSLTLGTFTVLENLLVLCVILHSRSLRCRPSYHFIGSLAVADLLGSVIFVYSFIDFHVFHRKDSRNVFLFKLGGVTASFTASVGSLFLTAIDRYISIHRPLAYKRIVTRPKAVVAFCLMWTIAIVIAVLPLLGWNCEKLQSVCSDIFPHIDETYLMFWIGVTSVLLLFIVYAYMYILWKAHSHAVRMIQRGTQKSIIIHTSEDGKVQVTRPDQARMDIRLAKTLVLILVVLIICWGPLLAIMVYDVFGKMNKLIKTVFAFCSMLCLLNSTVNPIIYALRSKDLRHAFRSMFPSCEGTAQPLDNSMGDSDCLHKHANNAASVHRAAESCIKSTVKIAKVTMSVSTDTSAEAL
(§2) CHOP-K1 cells stably expressing the CB1 receptor (PerkinElmer, ES-110-C) or the CB2 receptor (PerkinElmer, ES-111-CF) were seeded into 384 well white TC-treated plates (Greiner 781080) at 7000 cells per well in Ham's media (Gibco #31765-035) supplemented with 10% FBS (Gibco #16000-044) and 500 μg/mL Geneticin (Gibco #10131-027) and cultured overnight. The next day, plates were washed one time in assay buffer (HBSS with Ca^2+ and Mg^2+ (Corning #21-023-CV)+20 mM HEPES (Corning #25-060-Cl) and 0.01% BSA (Sigma A2153)). In a separate compound plate (Greiner 781201-906), 50 nL of test compound or DMSO was transferred using the Echo 550 (Labcyte), then 40 μL/well of assay buffer with 0.5 mM IBMX, 2 μM Forskolin (Sigma F3917), and 0.01% BSA was added. For the CB1 assay, assay buffer was dumped from the cell plate and fresh assay buffer containing 0.5 mM IBMX (Sigma I5679) was added at 30 μL/well, and the plate was incubated for 1 hr at 37° C., 5% CO2. Following the IBMX pre-treatment step, buffer was dumped from the cell plate, and 20 μL/well of the assay buffer with test compound was transferred into the cell plate with a subsequent incubation of 20 min at room temperature. Reagents for cAMP detection (cisbio 62AM4PEJ) were prepared and subsequently transferred to the cell plate at 20 μL/well. Following a 1 hr incubation at room temperature, the plate was read on the Pherastar FX (BMG, excitation 320 nm, detection at 620 nm (donor) and 665 nm (acceptor)). The ratio of signal at 665 nm/620 nm was determined for each well in the plate. For each assay day, a cAMP standard curve was run in parallel to assess the range of response and determine the concentration of cAMP in each well. Control wells (n=16 of each) with no activation of CB1 receptor (DMSO) and maximal activation (5 nM CP55940, Sigma) were used to normalize the data and to determine signal-to-background ratio and Z′. For the CB2 assay, conditions were as described above for the CB1 assay, except that the IBMX preincubation step was not used and that the 20 min compound incubation step occurred in the incubator at 37° C., 5% CO2.
(§3) EC50 values were calculated from dose response curves by nonlinear regression analysis using PRISM software.
(§4) Representative compounds of the present invention were tested according to the procedures described in Biological Example 1 above, with results as listed in Table 3, below. If a compound was tested more than once (due to multiple samples or batches), then the value listed in Table 3 below represents the average of the measured values.
A general note: In TR-FRET formats the signal depends on donor and acceptor labels being close together.

The target of the next test is hCB2 receptor (Homo sapiens, UniProt P34972). In words: Agonism of CB2 by detection of cAMP using HTRF. Format: cell-based. The note with it: for Emax: normalized to DMSO and maximal activation (5 nM CP55940). How it is done:
as §1, §2, §3, §4

[1] abbreviates: CHO cells stably expressing CB1 receptor, cAMP HTRF, forskolin-stimulated, average if tested more than once, read-out: hCB1 CHO EC50.
[2] abbreviates: CHO cells stably expressing CB1 receptor.
Setting [3] is: CHO cells stably expressing CB2 receptor, cAMP HTRF, forskolin-stimulated, average if tested more than once, read-out: hCB2 CHO EC50.
[4] abbreviates: CHO cells stably expressing CB2 receptor.

In general, EC50 refers to the concentration at which the effect is half-maximal. One may read the Emax as the maximal effect, on the per cent scale that the assay sets.

Chain of hCB2 receptor (P34972 whole entry): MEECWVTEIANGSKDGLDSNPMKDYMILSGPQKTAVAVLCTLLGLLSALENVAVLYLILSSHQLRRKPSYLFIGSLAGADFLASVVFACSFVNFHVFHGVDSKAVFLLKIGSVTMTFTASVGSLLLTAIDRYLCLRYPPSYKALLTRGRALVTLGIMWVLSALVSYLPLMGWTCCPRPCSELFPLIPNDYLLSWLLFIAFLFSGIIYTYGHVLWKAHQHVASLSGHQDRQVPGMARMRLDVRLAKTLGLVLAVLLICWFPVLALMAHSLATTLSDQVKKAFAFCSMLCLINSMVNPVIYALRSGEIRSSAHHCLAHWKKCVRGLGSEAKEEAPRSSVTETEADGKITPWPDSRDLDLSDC

Turning to `CC(C)(C)c1cnc(-c2nn(-c3c[n+]([O-])ccn3)c3c2CC2CCC3O2)s1` (stereo not drawn) [Compound 24, 3-(3-(5-(tert-butyl)thiazol-2-yl)-5,6,7,8-tetrahydro-5,8-epoxycyclohepta[c]pyrazol-1(4H)-yl)pyrazine 1-oxide], the values for the concentration for a half-maximal effect (EC50) on hCB1 receptor (setting [1]) and at hCB2 receptor (setting [3]) were 65.7 nM and 0.06 nM, respectively. Also, the maximal response (Emax) was determined as 95.5% at hCB1 receptor (setting [2]) and 97.8% on hCB2 receptor (setting [4]).

Turning to `O=C(NC12CC(C1)C2)c1nn(-c2c[n+]([O-])ccn2)c2c1CC1CCC2O1` (stereo not drawn) [Compound 20, 3-(3-(bicyclo[1.1.1]pentan-1-ylcarbamoyl)-5,6,7,8-tetrahydro-5,8-epoxycyclohepta[c]pyrazol-1(4H)-yl)pyrazine 1-oxide], the figures for the EC50 at hCB1 receptor (setting [1]) and on hCB2 receptor (setting [3]) were 1780 nM and 0.05 nM, respectively. Moreover, the Emax at hCB1 receptor (setting [2]) worked out at 91%; at hCB2 receptor (setting [4]), 100%.

Take `CCC(C)(C)c1noc(-c2nn(-c3c[n+]([O-])ccn3)c3c2CC2CCC3O2)n1` (stereo not drawn) [Compound 25, 3-(3-(3-(tert-pentyl)-1,2,4-oxadiazol-5-yl)-5,6,7,8-tetrahydro-5,8-epoxycyclohepta[c]pyrazol-1(4H)-y)pyrazine 1-oxide]: the concentration for a half-maximal effect (EC50) on hCB1 receptor (setting [1]) stood at 114 nM; at hCB2 receptor (setting [3]), 0.02 nM. The maximum response (Emax) came out at 98.9% at hCB1 receptor (setting [2]) and 99.5% on hCB2 receptor (setting [4]).

Consider `O=C(NC1(C(F)(F)F)CCC1)c1nn(-c2cnccn2)c2c1CC1CCC2O1` (stereo not drawn) [Compound 10, 1-(pyrazin-2-yl)-N-(1-(trifluoromethyl)cyclobutyl)-1,4,5,6,7,8-hexahydro-5,8-epoxycyclohepta[c]pyrazole-3-carboxamide], for which the concentration for a half-maximal effect (EC50) was determined as 571 nM on hCB1 receptor (setting [1]) and 0.04 nM at hCB2 receptor (setting [3]). Further, the Emax was 90.3% at hCB1 receptor (setting [2]) and 100% at hCB2 receptor (setting [4]).

On to `CC(C)(C)c1noc(-c2nn(-c3cnccn3)c3c2CC2CCC3O2)n1` (stereo not drawn) [Compound 37, 3-(3-(tert-butyl)-1,2,4-oxadiazol-5-yl)-1-(pyrazin-2-yl)-1,4,5,6,7,8-hexahydro-5,8-epoxycyclohepta[c]pyrazole], for which the values for the EC50 on hCB1 receptor (setting [1]) and at hCB2 receptor (setting [3]) were 177 nM and 0.22 nM, respectively. Moreover, the Emax at hCB1 receptor (setting [2]) came out at 34.8%; on hCB2 receptor (setting [4]), 99.2%.

For `O=C(NC12CC3CC(CC1C3)C2)c1nn(-c2ccc(F)cc2F)c2c1CC1CCC2O1` [Compound 41, 1-(2,4-difluorophenyl)-N-((2R,3as,5S,6as)-hexahydro-2,5-methanopentalen-3a(1H)-yl)-1,4,5,6,7,8-hexahydro-5,8-epoxycyclohepta[c]pyrazole-3-carboxamide], the results for the concentration for a half-maximal effect (EC50) on hCB1 receptor (setting [1]) and at hCB2 receptor (setting [3]) were 0.7 nM and 0.08 nM, respectively. Besides, the values for the Emax on hCB1 receptor (setting [2]) and on hCB2 receptor (setting [4]) were 98% and 99.1%, respectively.

With `O=C(NC12CCC(CC1)CC2)c1nn(-c2cnccn2)c2c1CC1CCC2O1` (stereo not drawn) [Compound 14, N-(bicyclo[2.2.2]octan-1-yl)-1-(pyrazin-2-yl)-1,4,5,6,7,8-hexahydro-5,8-epoxycyclohepta[c]pyrazole-3-carboxamide], the EC50 on hCB1 receptor (setting [1]) came out at 61.8 nM; at hCB2 receptor (setting [3]), 0.06 nM. In addition, the values for the maximal response (Emax) at hCB1 receptor (setting [2]) and at hCB2 receptor (setting [4]) were 103% and 100%, respectively.

For `O=C(NC12CCC(CC1)CC2)c1nn(-c2c[n+]([O-])ccn2)c2c1CC1CCC2O1` (stereo not drawn) [Compound 22, 3-(3-(bicyclo[2.2.2]octan-1-ylcarbamoyl)-5,6,7,8-tetrahydro-5,8-epoxycyclohepta[c]pyrazol-1(4H)-yl)pyrazine 1-oxide], the EC50 came to 48.5 nM on hCB1 receptor (setting [1]) and 0.02 nM at hCB2 receptor (setting [3]). The Emax was found to be 96.5% on hCB1 receptor (setting [2]) and 99.7% at hCB2 receptor (setting [4]).

`CC(C)(C)[C@@H](CO)NC(=O)c1nn(-c2c[n+]([O-])ccn2)c2c1C[C@H]1CC[C@@H]2O1` [Compound 16, 3-((5R,8S)-3-(((S)-1-hydroxy-3,3-dimethylbutan-2-yl)carbamoyl)-5,6,7,8-tetrahydro-5,8-epoxycyclohepta[c]pyrazol-1(4H)-yl)pyrazine 1-oxide]: the half-maximal effective concentration (EC50) was 352 nM on hCB1 receptor (setting [1]) and 0.09 nM on hCB2 receptor (setting [3]). The maximal response (Emax) at hCB1 receptor (setting [2]) came out at 91.3%; at hCB2 receptor (setting [4]), 101%.

For `CC(C)(C)c1nnc(-c2nn(-c3cnccn3)c3c2CC2CCC3O2)s1` (stereo not drawn) [Compound 38, 3-(5-(tert-butyl)-1,3,4-thiadiazol-2-yl)-1-(pyrazin-2-yl)-1,4,5,6,7,8-hexahydro-5,8-epoxycyclohepta[c]pyrazole], the EC50 at hCB1 receptor amounted to 283 nM; on hCB2 receptor, 0.04 nM. Moreover, the Emax is 114% on hCB1 receptor (setting [2]) and 100% on hCB2 receptor (setting [4]).

With `CC(C)(C)[C@@H](CO)NC(=O)c1nn(-c2cnccn2)c2c1C[C@H]1CC[C@@H]2O1` [Compound 8, (5R,8S)-N-((S)-1-hydroxy-3,3-dimethylbutan-2-yl)-1-(pyrazin-2-yl)-1,4,5,6,7,8-hexahydro-5,8-epoxycyclohepta[c]pyrazole-3-carboxamide], the EC50 came out at 422 nM at hCB1 receptor (setting [1]) and 0.09 nM on hCB2 receptor (setting [3]). The maximum response (Emax) at hCB1 receptor (setting [2]) stood at 111%; on hCB2 receptor (setting [4]), 100%.

With `CC(C)(C)c1nnc(-c2nn(-c3c[n+]([O-])ccn3)c3c2CC2CCC3O2)o1` (stereo not drawn) [Compound 29, 3-(3-(5-(tert-butyl)-1,3,4-oxadiazol-2-yl)-5,6,7,8-tetrahydro-5,8-epoxycyclohepta[c]pyrazol-1(4H)-yl)pyrazine 1-oxide], the EC50 on hCB1 receptor (setting [1]) came out at 2370 nM; on hCB2 receptor (setting [3]), 0.2 nM. For the same compound, the Emax at hCB1 receptor (setting [2]) is 79.3%; on hCB2 receptor (setting [4]), 101%.

With `O=C(NC12CC3CC(CC1C3)C2)c1nn(-c2cnccn2)c2c1CC1CCC2O1` [Compound 13, N-((2R,3as,5S,6as)-hexahydro-2,5-methanopentalen-3a(1H)-yl)-1-(pyrazin-2-yl)-1,4,5,6,7,8-hexahydro-5,8-epoxycyclohepta[c]pyrazole-3-carboxamide], the EC50 on hCB1 receptor (setting [1]) came to 16.6 nM; on hCB2 receptor (setting [3]), 0.02 nM. The maximal effect (Emax) at hCB1 receptor (setting [2]) is 111%; on hCB2 receptor (setting [4]) it was 100%.

In the case of `O=C(NC1(C(F)(F)F)CCC1)c1nn(-c2c[n+]([O-])ccn2)c2c1CC1CCC2O1` (stereo not drawn) [Compound 18, 3-(3-((1-(trifluoromethyl)cyclobutyl)carbamoyl)-5,6,7,8-tetrahydro-5,8-epoxycyclohepta[c]pyrazol-1(4H)-yl)pyrazine 1-oxide], the half-maximal effective concentration (EC50) on hCB1 receptor (setting [1]) was determined as 198 nM; on hCB2 receptor (setting [3]), 0.04 nM. Also, the results for the Emax on hCB1 receptor (setting [2]) and at hCB2 receptor (setting [4]) were 90.7% and 99.9%, respectively.

As to `CC(C)(C)NC(=O)c1nn(-c2cnccn2)c2c1CC1CCC2O1` (stereo not drawn) [Compound 3, N-(tert-butyl)-1-(pyrazin-2-yl)-1,4,5,6,7,8-hexahydro-5,8-epoxycyclohepta[c]pyrazole-3-carboxamide], the EC50 was determined as 2080 nM at hCB1 receptor (setting [1]) and 3.8 nM at hCB2 receptor (setting [3]). Besides, the values for the Emax at hCB1 receptor (setting [2]) and on hCB2 receptor (setting [4]) were 94.8% and 99.7%, respectively.

In the case of `CC(C)(C)c1noc(-c2nn(-c3c[n+]([O-])ccn3)c3c2CC2CCC3O2)n1` (stereo not drawn) [Compound 26, 3-(3-(3-(tert-butyl)-1,2,4-oxadiazol-5-yl)-5,6,7,8-tetrahydro-5,8-epoxycyclohepta[c]pyrazol-1(4H)-yl)pyrazine 1-oxide], the EC50 came to 4920 nM on hCB1 receptor (setting [1]) and 0.13 nM at hCB2 receptor (setting [3]). In addition, the maximum response (Emax) on hCB1 receptor (setting [2]) was 73.3%; on hCB2 receptor (setting [4]), 100%.

Consider `CC(C)(C)NC(=O)c1nn(-c2ccc(F)cc2F)c2c1CC1CCC2O1` (stereo not drawn) [Compound 1, N-(tert-butyl)-1-(2,4-difluorophenyl)-1,4,5,6,7,8-hexahydro-5,8-epoxycyclohepta[c]pyrazole-3-carboxamide], for which the 50% effective concentration (EC50) at hCB1 receptor (setting [1]) came out at 108 nM; at hCB2 receptor (setting [3]), 1.2 nM. Besides, the maximal effect (Emax) stood at 99% at hCB1 receptor (setting [2]) and 95.6% at hCB2 receptor (setting [4]).

For the compound `O=C(NC12CC(C1)C2)c1nn(-c2cnccn2)c2c1CC1CCC2O1` (stereo not drawn) [Compound 12, N-(bicyclo[1.1.1]pentan-1-yl)-1-(pyrazin-2-yl)-1,4,5,6,7,8-hexahydro-5,8-epoxycyclohepta[c]pyrazole-3-carboxamide], the EC50 on hCB1 receptor (setting [1]) worked out at 1510 nM; on hCB2 receptor (setting [3]), 0.24 nM. In addition, the Emax on hCB1 receptor (setting [2]) worked out at 90.8%; on hCB2 receptor (setting [4]), 99.5%.
